Experimental data from patent US20050209157A1, “Short bioactive peptides and methods for their use” (priority 2001, published 2005).
≈ marks a conversion by molar mass, not a printed value. No end group written: not given here.

Key:
MCF7 = experiment: Anti-cancer assay, MTT, LD50; format: cell-based
Description: Numbers are LD50 values (μg/mL).

in vitro [1] = format: cell-based, human; settings: human, human red blood cells, pH 7, Table 41, lower part; read-out: RBC LD50
[2] = tested on: human red blood cells (RBC); experiment: in vitro; format: cell-based; settings: Table 42
[3] = Leukocyte (WBC) inhibition, toxicity LD50; format: cell-based, human; settings: male, human, human leukocytes (buffy coat cells, mostly PBMCs); Table 41, lower part
Method: (§1) In vitro viability of human leukocyte cells in the presence of different peptides at different concentrations was determined by an Alamar Blue protocol. Alamar Blue (Promega, Madison, Wis.) is an indicator dye, formulated to measure quantitatively the proliferation and cytotoxicity of the cells. The dye consists of an oxidation-reduction (redox) indicator that yields a calorimetric change and a fluorescent signal in response to cellular metabolic activity.
(§2) Assay protocol: Blood from a human was drawn and centrifuged at 1500 rpm for 15 minutes at room temperature. The buffy coat cells at the plasma-red blood cell interface were aspirated. Buffy coat cells (mainly lymphocyte cells) were then transferred into 15 ml centrifuge tubes containing 5 ml of RPMI-1640 medium+10% Fetal Bovine Serum (Gibco, Grand Island, N.Y.). Additional medium was added to the tubes to bring the volume up to 10 ml. The buffy coat suspension was then carefully layered on 5 ml of Histopaque (Sigma Chemical Co., St. Louis, Mo.) and centrifuged at 1500 rpm for 30 minutes at room temperature. The interface which is mostly PBMCs (peripheral mononuclear cells) was aspirated and transferred to a 15 ml conical centrifuge tube and, resuspended in 2 ml cold RPMI-1640 and brought up to 15 ml with cold RPMI-1640 medium. Cells were centrifuged at 1500 rpm for 10 minutes. The supernatant was then aspirated and discarded. The cell pellet was re-suspended in 1 ml of cold RPMI 1640 and brought up to 15 ml with RPMI medium. This step was repeated twice, except that in the last step, the cells were resuspended with 1 ml of cold RPMI-1640 medium and cell counts were performed with a hemocytometer according to the Sigma cell culture catalogue.
(§3) Pokewood mitogen was used as a control along with positive and negative controls. Negative control cells were killed with 70% methanol. Positive (+) control cells were incubated in RPMI medium (untreated). […] of AlamarBlue was added to the cells, and readings were taken after 24 hours, 48 hours, 72 hours, and 96 hours using a fluorimeter (excitation 544/transmission 590 nm).
(§4) In choosing a peptide for possible treatment of a given indication it is important to match the therapeutic activity and specificity of the peptide with its possible toxic properties.
(§5) The protocols for WBC and WI38 stimulation have been discussed above. The RBC protocol follows Table 24.

human leukocytes (WBC) = experiment: Leukocyte (WBC) inhibition, toxicity LD50; format: cell-based; settings: Table 42
Method: as §1, §2, §3, §4, §5

WI38 = settings: Table 42
in vitro [4] = settings: human, WI38 normal lung fibroblast cells, WI38 LD50, Table 41, lower part
Pseudomonas aeruginosa = experiment: Synergy of Shiva-1 and lysozyme, percent viability; format: cell-based
Method: (§6) The percent viability of Pseudomonas aeruginosa was determined relative to blank controls.

S. intermedius 19930 = experiment: Synergy of Shiva-1 and lysozyme, percent viability; format: cell-based, Staphylococcus intermedius
Method: (§7) The percent viability of gram positive S. intermedius 19930, S. intermedius 20034, and S. aureus was determined relative to blank controls.

S. intermedius 20034 = experiment: Synergy of Shiva-1 and lysozyme, percent viability; format: cell-based, Staphylococcus intermedius; settings: lysozyme 10×
Method: as §7

S. aureus = experiment: Synergy of Shiva-1 and lysozyme, percent viability; format: cell-based, Staphylococcus aureus; settings: lysozyme 10×
Method: as §7

[5] = tested on: Pseudomonas syringae pv. tabaci (PSPT)
[6] = tested on: Pseudomonas solanacearum (PS)
[7] = tested on: Erwinia caratovora subsp. carotova (EC)
[8] = tested on: Xanthomonas campestris pv. campestris (XC)
[9] = Synergy of Shiva-1 and lysozyme, percent viability; format: cell-based, Pseudomonas aeruginosa; settings: Pseudomonas aeruginosa
Method: as §6

[10] = Synergy of Shiva-1 and lysozyme, percent viability; format: cell-based, Staphylococcus intermedius
Method: as §7

[11] = Synergy of Shiva-1 and lysozyme, percent viability; format: cell-based, Staphylococcus aureus; settings: S. aureus
Method: as §7

CC(C)C[C@H](NC(=O)[C@H](C)NC(=O)[C@H](CC(C)C)NC(=O)[C@H](CCCCN)NC(=O)[C@H](C)NC(=O)[C@H](CC(C)C)NC(=O)[C@H](CCCCN)NC(=O)[C@H](CCCCN)NC(=O)[C@H](C)NC(=O)[C@H](CC(C)C)NC(=O)[C@H](CCCCN)NC(=O)[C@H](C)NC(=O)[C@H](CC(C)C)NC(=O)[C@H](CCCCN)NC(=O)[C@H](CCCCN)NC(=O)[C@H](C)NC(=O)[C@@H](N)Cc1ccccc1)C(N)=O [17 (35)]
MCF7 LD50 (MCF7; Table 41, lower part): 9 µg/mL
MCF7 LD50 (MCF7; Table 42): 9 µg/mL
HC50 at 1 h (in vitro [1]): 200 µg/mL
RBC LD50 [2]: 200 µg/mL
CC50 [3]: 25 µg/mL (≈ 13.5 µM)
WBC LD50 (human leukocytes (WBC)): 25 µg/mL
WI38 LD50 (WI38): 25 µg/mL
CC50 at 24 h (in vitro [4]): 25 µg/mL (≈ 13.5 µM)

CC(C)C[C@H](NC(=O)[C@H](C)NC(=O)[C@H](CC(C)C)NC(=O)[C@H](CCCCN)NC(=O)[C@H](C)NC(=O)[C@H](CC(C)C)NC(=O)[C@H](CCCCN)NC(=O)[C@H](CCCCN)NC(=O)[C@H](C)NC(=O)[C@H](CC(C)C)NC(=O)[C@H](CCCCN)NC(=O)[C@H](C)NC(=O)[C@H](CC(C)C)NC(=O)[C@H](CCCCN)NC(=O)[C@H](CCCCN)NC(=O)[C@H](C)NC(=O)[C@@H](N)C(C)C)C(N)=O [32 (50)]
MCF7 LD50 (MCF7; Table 41, lower part): 32 µg/mL
MCF7 LD50 (MCF7; Table 42): 32 µg/mL
HC50 at 1 h (in vitro [1]): 420 µg/mL
RBC LD50 [2]: 420 µg/mL
CC50 [3]: 420 µg/mL (≈ 233 µM)
WBC LD50 (human leukocytes (WBC)): 420 µg/mL
WI38 LD50 (WI38): 40 µg/mL
CC50 at 24 h (in vitro [4]): 40 µg/mL (≈ 22.1 µM)

FAKKLAKLAKKLLAL-NH2 [20 (38)]
MCF7 LD50 (MCF7; Table 41, lower part): 17 µg/mL
MCF7 LD50 (MCF7; Table 42): 17 µg/mL
HC50 at 1 h (in vitro [1]): 350 µg/mL
RBC LD50 [2]: 350 µg/mL
CC50 [3]: 54 µg/mL
WBC LD50 (human leukocytes (WBC)): 54 µg/mL
WI38 LD50 (WI38): 100 µg/mL
CC50 at 24 h (in vitro [4]): 100 µg/mL

Lysozyme
percent viability (Pseudomonas aeruginosa; peptide concentration 0.01 μM, lysozyme at same molar concentration (1×), relative to blank controls): 100%
percent viability (Pseudomonas aeruginosa; peptide concentration 0.1 μM, lysozyme 1×): 82.2%
percent viability (Pseudomonas aeruginosa; peptide concentration 1 μM, lysozyme 1×): 52.1%
percent viability (Pseudomonas aeruginosa; peptide concentration 5 μM, lysozyme 1×): 7.9%
percent viability (Pseudomonas aeruginosa; peptide concentration 25 μM, lysozyme 1×): 0.4%
percent viability (S. intermedius 19930; peptide concentration 0.01 μM, lysozyme at ten times the molar concentration (10×)): 100%
percent viability (S. intermedius 19930; peptide concentration 0.1 μM, lysozyme 10×): 100%
percent viability (S. intermedius 19930; peptide concentration 0.5 μM, lysozyme 10×): 81.3%
percent viability (S. intermedius 19930; peptide concentration 1 μM, lysozyme 10×): 53%
percent viability (S. intermedius 19930; peptide concentration 5 μM, lysozyme 10×): 49.5%
percent viability (S. intermedius 19930; peptide concentration 10 μM, lysozyme 10×): 34.4%
percent viability (S. intermedius 19930; peptide concentration 50 μM, lysozyme 10×): 22%
percent viability (S. intermedius 20034; peptide concentration 0.01 μM): 100%
percent viability (S. intermedius 20034; peptide concentration 0.5 μM): 59.0%
percent viability (S. intermedius 20034; peptide concentration 5 μM): 38.3%
percent viability (S. intermedius 20034; peptide concentration 50 μM): 10.0%
percent viability (S. aureus; peptide concentration 0.01 μM): 100%
percent viability (S. aureus; peptide concentration 0.1 μM): 100%
percent viability (S. aureus; peptide concentration 0.5 μM): 100%
percent viability (S. aureus; peptide concentration 1 μM): 51.0%
percent viability (S. aureus; peptide concentration 5 μM): 18.4%
percent viability (S. aureus; peptide concentration 10 μM): 13.3%
percent viability (S. aureus; peptide concentration 50 μM): 9.5%
LD50 [5]: >0.19 (key: > indicates greater than 1000.)
LD50 [6]: >16.0 (key: > indicates greater than 1000.)
LD50 [7]: >0.44 (key: > indicates greater than 1000.)
LD50 [8]: >0.027 (key: > indicates greater than 1000.)

MPKWKVFKKIEKVGRNIRNGIVKAGPAIAVLGEAKALG-NH2 (C-terminus assumed) [SB-37]
viability at 0.01 µM [9]: 100%
viability at 0.1 µM [9]: 79.4%
viability at 1 µM [9]: 48.8%
viability at 5 µM [9]: 38.5%
viability at 25 µM [9]: 0%
viability at 0.01 µM ([10]; S. intermedius 19930): 100%
viability at 0.1 µM ([10]; S. intermedius 19930): 94.7%
viability at 0.5 µM ([10]; S. intermedius 19930): 69.4%
viability at 1 µM ([10]; S. intermedius 19930): 42.5%
viability at 5 µM ([10]; S. intermedius 19930): 36.1%
viability at 10 µM ([10]; S. intermedius 19930): 5.6%
viability at 50 µM ([10]; S. intermedius 19930): 0%
viability at 0.01 µM ([10]; S. intermedius 20034): 100%
viability at 0.5 µM ([10]; S. intermedius 20034): 68%
viability at 5 µM ([10]; S. intermedius 20034): 35.1%
viability at 50 µM ([10]; S. intermedius 20034): 0%
viability at 0.01 µM [11]: 100%
viability at 0.1 µM [11]: 100%
viability at 0.5 µM [11]: 81%
viability at 1 µM [11]: 47.5%
viability at 5 µM [11]: 31.8%
viability at 10 µM [11]: 5.6%
viability at 50 µM [11]: 1.9%
LD50 [5]: 5.20 µM
LD50 [6]: 64.0 µM
LD50 [7]: 1.48 µM
LD50 [8]: 0.57 µM
